Data from the supplement of paper PMC8671470.
± gives the standard deviation of the averaged measurements.

Tests used:
Settings in all cases: 72 h
[1] = test system: HL-60; test: cell viability (% survival relative to DMSO control); higher = less cytotoxic
Method in brief: (§1)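 A rescreen of the full library used HL-60 cells in RPMI 1640 with 10% FBS on 384-well plates, run in duplicate at five tenfold concentrations (1–10,000 nM). Each screen included DMSO or 100 nM of one of three metabolic inhibitors and ran 72 h at 37 °C, 5% CO2. CellTiter-Glo viability was scaled between DMSO and 10 μM proteasome-inhibitor wells. Any area under the curve comes from four-parameter log-logistic fits with drc and PharmacoGx.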

[2] = test system: HL-60; test: area under dose-response curve (viability, 1 nM-10 uM) (fraction (0-1)); higher = more sensitive
Method in brief: as §1

[3] = test system: ML-2; test: cell viability (% survival relative to DMSO control, bortezomib = 0%); higher = less cytotoxic
Method in brief: (§2)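 Fifteen myeloid leukaemia cell lines (10 AML, 5 CML) were seeded at a density titrated to the linear growth range into 384-well plates pre-printed with compounds at 1, 10, 100, 1000 or 10000 nM in duplicate. Plates were incubated for 72 h at 37 °C with 5% CO2. Viability was then read by CellTiter-Glo luminescence. Each value is percent survival averaged over the duplicates, with vehicle set to 100% and a 10 µM positive control to 0%.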

[4] = test system: MV4-11; test: as above
Method in brief: as §2

[5] = test system: MOLM-13; test: as above
Method in brief: as §2

[6] = test system: LAMA-84; test: as above
Method in brief: as §2

[7] = test system: BV-173; test: as above
Method in brief: as §2

[8] = test system: SHI-1; test: as above
Method in brief: as §2

[9] = test system: KG-1; test: as above
Method in brief: as §2

[10] = test system: HEL; test: as above
Method in brief: as §2

[11] = test system: K-562; test: as above
Method in brief: as §2

[12] = test system: KCL-22; test: as above
Method in brief: as §2

[13] = test system: HL-60; test: as above
Method in brief: as §2

[14] = test system: THP-1
Method in brief: (§3)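 Seeded in RPMI 1640 at densities within the linear growth range, fifteen myeloid leukaemia cell lines were dispensed into 384-well plates with acoustically pre-printed compounds spanning five tenfold doses from 1 to 10,000 nM, in duplicate. The plates were kept for 72 h at 37 °C in 5% CO2 before luminescent ATP viability was measured and normalised to vehicle and to a positive control at 10 µM. Curves were fitted with a four-parameter log-logistic model. The IC50 was taken from those curves.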

[15] = test system: ML-2
Method in brief: as §3

[16] = test system: MV4-11
Method in brief: as §3

[17] = test system: MOLM-13
Method in brief: as §3

[18] = test system: LAMA-84
Method in brief: as §3

[19] = test system: BV-173
Method in brief: as §3

[20] = test system: SHI-1
Method in brief: as §3

[21] = test system: KG-1
Method in brief: as §3

[22] = test system: HEL
Method in brief: as §3

[23] = test system: K-562
Method in brief: as §3

[24] = test system: KU-812
Method in brief: as §3

[25] = test system: KCL-22
Method in brief: as §3

[26] = test system: NOMO-1
Method in brief: as §3

[27] = test system: HL-60
Method in brief: as §3

[28] = test system: Mono-Mac-6
Method in brief: as §3

OCCN(CCO)c1nc(N2CCCCC2)c2nc(N(CCO)CCO)nc(N3CCCCC3)c2n1 [Dipyridamole]
cell viability [%], [1]
Settings	0.001 µM	0.01 µM	0.1 µM	1 µM	10 µM
co-treatment: AZD3965 100 nM	95.7 ± 8	98.9 ± 3.2	100.7 ± 0.65	102 ± 6.6	106 ± 4.1
co-treatment: DMSO vehicle	101 ± 5	97.54 ± 0.47	107 ± 0.53	100 ± 7	106 ± 3.3
co-treatment: GSK2194069 100 nM	94.2 ± 5.8	94.44 ± 0.53	106 ± 3.8	82 ± 9	64 ± 5.3
co-treatment: pictilisib 100 nM	90.6 ± 21	101 ± 8.1	105.3 ± 0.23	99.7 ± 18	97.4 ± 1.1

Settings	area under dose-response curve, co-treatment: AZD3965 100 nM	area under dose-response curve, co-treatment: DMSO vehicle	area under dose-response curve, co-treatment: pictilisib 100 nM	cell viability, 1 nM [%]	cell viability, 10 nM [%]	cell viability, 100 nM [%]	cell viability, 1000 nM [%]	cell viability, 10000 nM [%]
[2]	< 0.0301	< 0.0301	< 0.0301	–	–	–	–	–
[3]	–	–	–	93.4	104	123	103	66.4
[4]	–	–	–	95.8	95	101	94.4	43.5
[5]	–	–	–	116	117	97.5	83.5	97.8
[6]	–	–	–	97.9	99.6	108	90.3	83.7
[7]	–	–	–	90.4	98.2	92.4	78.6	38.8
[8]	–	–	–	104	113	110	92.2	80.9
[9]	–	–	–	94.7	112	101	104	90.2
[10]	–	–	–	87.6	101	102	105	77.7
[11]	–	–	–	108	89.5	105	85.6	67
[12]	–	–	–	114	95.3	98.9	106	65
[13]	–	–	–	129	65.2	105	61.6	93.8

Settings	IC50 (cell viability) [µM]
[14]	> 10
[15]	> 10
[16]	8.82
[17]	> 10
[18]	> 10
[19]	3.55
[20]	> 10
[21]	> 10
[22]	> 10
[23]	> 10
[24]	> 10
[25]	> 10
[26]	> 10
[27]	> 10
[28]	> 10

Cc1cc(O)c2c(c1)C(=O)c1cc(O)cc(O)c1C2=O [Emodin]
cell viability [%], [1]
Settings	0.001 µM	0.01 µM	0.1 µM	1 µM	10 µM
co-treatment: AZD3965 100 nM	101 ± 3.6	97.9 ± 3.5	101 ± 2.3	97.585 ± 0.0084	98.7 ± 2.1
co-treatment: DMSO vehicle	102 ± 3.5	100 ± 1.2	101 ± 3.1	102.6 ± 0.14	103.5 ± 0.92
co-treatment: GSK2194069 100 nM	92.5 ± 2.3	76.2 ± 16	94 ± 6.6	74.7 ± 24	96.7 ± 1.6
co-treatment: pictilisib 100 nM	96.6 ± 2.1	107 ± 18	97.4 ± 1.4	89.4 ± 7.9	97.6 ± 2.7

Settings	area under dose-response curve, co-treatment: AZD3965 100 nM	area under dose-response curve, co-treatment: DMSO vehicle	area under dose-response curve, co-treatment: GSK2194069 100 nM	area under dose-response curve, co-treatment: pictilisib 100 nM	cell viability, 1 nM [%]	cell viability, 10 nM [%]	cell viability, 100 nM [%]	cell viability, 1000 nM [%]	cell viability, 10000 nM [%]
[2]	< 0.0301	< 0.0301	< 0.0301	< 0.0301	–	–	–	–	–
[3]	–	–	–	–	97.8	104	101	89.5	98.2
[4]	–	–	–	–	92.8	85.6	93	99	100
[5]	–	–	–	–	67	101	112	95.2	71.4
[6]	–	–	–	–	102	100	102	96.5	112
[7]	–	–	–	–	88.8	111	99.8	74.6	89.8
[8]	–	–	–	–	88.6	97.8	98.3	94.5	93.5
[9]	–	–	–	–	90.7	89.7	96.1	97.3	94.9
[10]	–	–	–	–	105	114	98.5	89.8	115
[11]	–	–	–	–	109	94.2	102	102	112
[12]	–	–	–	–	103	97.9	96.6	98.5	96
[13]	–	–	–	–	90.5	97.8	124	88.2	109

Settings	IC50 (cell viability) [µM]
[14]	> 10
[15]	> 10
[16]	> 10
[17]	> 10
[18]	> 10
[19]	> 10
[20]	> 10
[21]	> 10
[22]	> 10
[23]	> 10
[24]	> 10
[25]	> 10
[26]	> 10
[27]	> 10
[28]	> 10

N#Cc1ccc(C2CCCc3cncn32)cc1 (stereo unspecified) [Fadrozole]
cell viability [%], [1]
Settings	0.001 µM	0.01 µM	0.1 µM	1 µM	10 µM
co-treatment: AZD3965 100 nM	99.99 ± 0.4	98.614 ± 0.083	101 ± 12	96.8 ± 2.8	98.7 ± 3
co-treatment: DMSO vehicle	103 ± 3.8	101 ± 1.2	104 ± 5.4	100 ± 0.66	102.2 ± 0.98
co-treatment: GSK2194069 100 nM	105 ± 7.6	97.3 ± 4.8	101 ± 17	112 ± 3	100 ± 1.6
co-treatment: pictilisib 100 nM	103 ± 6	101 ± 3.5	113 ± 24	113 ± 6.1	107 ± 15

Settings	area under dose-response curve, co-treatment: AZD3965 100 nM	area under dose-response curve, co-treatment: DMSO vehicle	area under dose-response curve, co-treatment: GSK2194069 100 nM	area under dose-response curve, co-treatment: pictilisib 100 nM	cell viability, 1 nM [%]	cell viability, 10 nM [%]	cell viability, 100 nM [%]	cell viability, 1000 nM [%]	cell viability, 10000 nM [%]
[2]	< 0.0301	< 0.0301	< 0.0301	< 0.0301	–	–	–	–	–
[3]	–	–	–	–	90.5	90.7	86.2	107	109
[4]	–	–	–	–	109	96.4	95.9	93.2	98.1
[5]	–	–	–	–	108	86.8	92.7	94.4	93.2
[6]	–	–	–	–	102	93.7	103	95.5	107
[7]	–	–	–	–	103	95.3	95	116	106
[8]	–	–	–	–	113	95.3	101	95.8	102
[9]	–	–	–	–	108	97.9	89.5	110	108
[10]	–	–	–	–	106	95.1	93.5	96.9	111
[11]	–	–	–	–	95.8	97.9	95.8	101	109
[12]	–	–	–	–	115	92.2	88.6	82.7	103
[13]	–	–	–	–	108	91.7	88	85.9	99.2

Settings	IC50 (cell viability) [µM]
[14]	> 10
[15]	> 10
[16]	> 10
[17]	> 10
[18]	> 10
[19]	> 10
[20]	> 10
[21]	> 10
[22]	> 10
[23]	> 10
[24]	> 10
[25]	> 10
[26]	> 10
[27]	> 10
[28]	> 10
